Molecules are shown by their SMILES.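 Dose response: 5 concentrations. Exposure: 48 h. Format: 96-well plates. Endpoint: linear interpolation; highest concentration if not reached. GI50: concentration for 50% inhibition of growth.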 Activity calls are given as the source filed them. Cut-off read from the data, not from the text of the source: active = GI50 up to about 1.1 µM and inactive = higher.

Some test systems named below: A498; CAKI-1; EKVX; HCT-15; HOP-62; IGROV-1; KM12; M14; MDA-N; NCI-H23; NCI-H522; OVCAR-3; OVCAR-4; SF-539; SNB-19; SNB-75; SR; U-251; UACC-257; UACC-62.
What all share (experiment): NCI tumour cell line growth inhibition, 48 h

Regarding `O=C1c2ccccc2-c2nnc(-c3ccc([N+](=O)[O-])cc3)cc21`, the GI50 was > 10 µM (inactive) in the test on A498; > 10 µM (inactive) in the test on CAKI-1; > 10 µM (inactive) with EKVX; greater than 10 µM in the test with HCT-15; > 10 µM (inactive) with HOP-62; > 10 µM (inactive) in the test with IGROV-1. Also, the GI50 in the test with KM12, in the test with M14, with MDA-N, with NCI-H23, in the test with NCI-H522 and in the test on OVCAR-3 was > 10 µM (inactive) each time. The GI50 with OVCAR-4, in the test on SF-539, in the test on SNB-19, in the test on SNB-75, in the test with SR and in the test with U-251 was > 10 µM (inactive) throughout. Moreover, the GI50 in the test on UACC-257 and in the test with UACC-62 was > 10 µM (inactive) throughout.

For the origin of these results see ChEMBL document CHEMBL1201862, “PubChem BioAssay data set” (2004).
